Reference: patent US9486507B2, “Pro-coagulant compounds and methods of use thereof” (priority 2011, dated 2016)
Several values for one entry are separate records, joined by “and”; a condition that tells them apart may be missing. Equal entries are not always repeated.

How the values were obtained:
FVIIa = target: T1, FVIIa (Homo sapiens, UniProt P08709); assay: FXa generation assay with human FVIIa; format: biochemical; details: absence of PL
T1 construct: The two-chain Factor VIIa is a polypeptide produced from FVII by hydrolysis of the Arg152-Ile153 peptide bond of FVII; purchased Haematologic Technologies
T1 sequence (P08709 61-212 limits assumed): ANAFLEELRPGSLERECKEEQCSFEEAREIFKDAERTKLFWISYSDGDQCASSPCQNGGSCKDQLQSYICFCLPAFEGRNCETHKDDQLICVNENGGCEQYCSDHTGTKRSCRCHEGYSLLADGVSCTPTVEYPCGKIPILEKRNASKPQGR
T1 sequence (P08709 213-466 limits assumed): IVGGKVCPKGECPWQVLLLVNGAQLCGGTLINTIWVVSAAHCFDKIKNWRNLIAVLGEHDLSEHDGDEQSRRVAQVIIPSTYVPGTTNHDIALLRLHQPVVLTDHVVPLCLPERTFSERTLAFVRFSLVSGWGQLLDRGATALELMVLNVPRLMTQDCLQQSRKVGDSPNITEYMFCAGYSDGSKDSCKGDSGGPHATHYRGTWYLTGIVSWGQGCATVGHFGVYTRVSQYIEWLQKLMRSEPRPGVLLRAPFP
Description: Similarly, in order to measure the catalytic activity of FVIIa, a FXa generation assay measuring the ability of the compounds of the present disclosure to enhance the catalytic activity of FVIIa was established. The difference between the two assays was that the final concentration of 10 nM hFIXa was replaced with 10 nM hFVIIa. The remaining reagents and assay procedures described above were unchanged.

[1] = system: purified recombinant human coagulation factors; assay: Thrombin generation assay using purified hemostatic components; format: biochemical
Description: Purified recombinant human coagulation factors V, XI, II, X, IX, VII, VIIa, recombinant tissue factor and antithrombin III (ATIII) were obtained from Haematologic Technologies (Essex Junction, Vt., USA). Lyophilized platelets were from Helena Laboratorires (Beaumont, Tex.); TFPI was from American Diagnostica.

[2] = target: T2, FXa or the prothrombinase complex (Homo sapiens, UniProt P00742); assay: FXa / prothrombinase activity in purified thrombin generation assay; format: biochemical; details: 1 μM; FXa 0.05 ug/mL, with or without FV
T2 construct: Under these conditions FIXa cleaves the zymogen FX into the active form FXa
T2 sequence (P00742 41-179 limits assumed): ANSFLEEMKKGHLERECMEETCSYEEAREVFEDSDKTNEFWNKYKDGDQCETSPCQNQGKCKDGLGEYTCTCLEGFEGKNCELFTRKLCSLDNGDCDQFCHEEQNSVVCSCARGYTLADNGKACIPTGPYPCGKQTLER
T2 sequence (P00742 235-488 limits assumed): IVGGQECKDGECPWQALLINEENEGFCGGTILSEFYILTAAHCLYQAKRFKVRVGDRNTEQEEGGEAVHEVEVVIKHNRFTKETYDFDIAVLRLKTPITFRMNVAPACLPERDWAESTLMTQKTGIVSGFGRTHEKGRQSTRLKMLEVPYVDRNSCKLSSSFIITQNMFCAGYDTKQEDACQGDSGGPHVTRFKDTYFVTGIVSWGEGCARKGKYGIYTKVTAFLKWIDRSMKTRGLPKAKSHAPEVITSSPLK
Description: In another experiment it was determined whether or not the compounds of the present disclosure directly enhance the activity of FXa or the prothrombinase complex.

α-thrombin = α-thrombin (Homo sapiens, UniProt P00734); assay: Fibrin generation assay (thrombin activity); format: biochemical; details: compound 5 1 uM; α-thrombin 0 or 0.1 IU/mL
Description: The generation of fibrin was determined by measuring the absorbance at OD405 with the Biotek Synergy 2 multi-detection microplate reader.

[3] = system: FVIII deficient human plasma; assay: Rotational thromboelastometry (ROTEM) in FVIII-deficient human plasma; format: biochemical
Description: Compounds of the present disclosure were tested by rotational thromboelastometry to evaluate coagulation parameters such as clotting time (CT), α-angle, clot formation time (CFT), maximum clot firmness (MCF). Briefly, lyophilized and citrated FVIII deficient human plasma (Siemens) was reconstituted with 1 mL of distilled water, allowed to stand for 20 min at RT and mixed well before use. Alternatively, an aliquot of citrated (non-lyophilized) FVIII deficient human plasma (HRF, George King, Precision Biologics, or real-time donors) was thawed for 10 min in a 37° C. water bath and when needed centrifuged at 2800 g for 5 min at 25° C. FVIII deficient plasma was spiked with lyophilized platelets (Helena Laboratories, final concentration 0.5×10^8 cells/ml) and compounds, FVIII, or both compound and FVIII. Dilutions of compounds of the present disclosure and controls, such as FVIII, were prepared in PBS (—Ca, —Mg). Next, 300 μl of the spiked plasma was transferred to a ROTEM cup already containing 20 μl of StarTEM (concentrated calcium chloride solution) and 20 μl of lipidated TF (American Diagnostica, final concentration 10 fM) or Kaolin (Sigma-Aldrich, final concentration 0.4 μg/ml) and recording was initiated. The cups were maintained at 37° C. during the testing.

platelets = assay: Platelet aggregation (aggregometer); format: cell-based
Text: ADP was used as a positive control for platelet aggregation.

FIXa [4] = target: T3, FIXa (Homo sapiens, UniProt P00740); assay: FXa generation assay with human FIXa; format: biochemical; parameters: purchased Haematologic Technologies
T3 sequence (P00740 47-191 limits assumed): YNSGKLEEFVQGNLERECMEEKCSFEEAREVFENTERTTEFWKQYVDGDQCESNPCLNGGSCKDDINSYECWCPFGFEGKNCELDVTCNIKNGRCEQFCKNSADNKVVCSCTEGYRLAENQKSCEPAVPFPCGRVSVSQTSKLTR
T3 sequence (P00740 227-461 limits assumed): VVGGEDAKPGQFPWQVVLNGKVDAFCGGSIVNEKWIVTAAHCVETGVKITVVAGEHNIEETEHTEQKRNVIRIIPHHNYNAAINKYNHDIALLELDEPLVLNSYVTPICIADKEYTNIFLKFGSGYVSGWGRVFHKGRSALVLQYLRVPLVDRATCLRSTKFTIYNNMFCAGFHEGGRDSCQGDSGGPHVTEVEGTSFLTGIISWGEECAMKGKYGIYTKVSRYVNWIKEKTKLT
Description: FXa generation was utilized to assess the capability of the compounds of the present disclosure to enhance the catalytic activities of FIXa and/or FVIIa.
To measure the catalytic activity of FIXa, FIXa was mixed with FX and phospholipids in the presence of calcium chloride. Under these conditions FIXa cleaves the zymogen FX into the active form FXa.
The generation of FXa is monitored by the change in absorbance of the reaction at 405 nm due to the presence of a cleavable FXa chromogenic substrate (S-2765; Z-D-Arg-Gly-Arg-pNA; cleavage of p-nitroaniline). […] The kit contains all the FXa generation components, however, FIXa and FX obtained from this kit are from a bovine origin and were replaced with purified human FIXa or human FVIIa and human FX (Haematologic Technologies).
The assay was also modified to enhance the screening throughput. Instead of the sequential addition, all the assay components were mixed and added simultaneously to the purified compound to be assayed. A 125 μl reaction mix of the assay components was prepared in the buffer supplied by the manufacturer (50 mM Tris 7.3, and 1% BSA). […] The reaction mix (125 ul) was then added to 25 ul of compound diluted in water in a Costar-3651 flat bottom 96-well plate. […] The absorbance was monitored over a period of 1 hour at 405 nm using a plate reader (Synergy 2, Biotek).
The 405 nm absorbance data were then analyzed to obtain the slope of the first derivative which reflects the rate of change in absorbance. The first derivative slope data for each compound concentration were plotted against the compound concentration and fitted to a four-parameter equation to obtain the EC50 and Vmax values for each compound tested.

FIXa [5] = target: T3, FIXa; assay: Km/Kcat of FIXa for the substrate FX (FXa generation assay); format: biochemical; parameters: purchased Haematologic Technologies
Description: To determine the Km and Kcat of FIXa or FVIIa for the substrate FX, the FXa generation assay described above was used with the following modifications. […] Reactions were set up with varying concentrations of FX ranging between 400 and 0.8 nM and the rates of FXa generation were determined for each peptide at the different FX concentrations tested as described above. […] The catalytic constant (Kcat) was calculated by normalizing the Vmax to the enzyme concentration.
FIXa was used at 10 nM, and FX was used at 10-1000 nM. The assay was performed in the presence of phospholipids (PL) and calcium chloride.

FIXa [6] = target: T3, FIXa; assay: Heparin accelerated FIXa-AT complex formation assay; format: biochemical; parameters: purchased Haematologic Technologies; details: for % FIXa-AT complex formation: with heparin
Description: Competition studies between the pro-coagulant peptides and heparin: compounds of the present disclosure were tested in a heparin competition assay in an effort to further map the peptide's binding site on FIXa. FIXa inactivation by antithrombin (AT) was assessed by gel electrophoresis in the presence of heparin and varying procoagulant peptide concentrations. The rate of FIXa-AT complex formation was quantified over a 15 minute time course. […] The samples were incubated at 37° C. in a water bath and 12.5 μL aliquots were removed at each time point (0.5, 2, 5, 10, 15 min) and immediately mixed with 12.5 μL SDS 2× non-reducing sample buffer. The samples were heated at 90° C. for 3 min and loaded onto a 4-20% BioRad gel (20 μL/lane). The gel was run at 300V for 25 min, and the bands were quantified using Quantity One software from BioRad.

FIXa [7] = target: T3, FIXa; assay: as above; format: biochemical; parameters: purchased Haematologic Technologies; details: with heparin, 0 min
[8] = FVIII-deficient plasma (containing platelets), 10 μM
[9] = FVIII-deficient plasma, compound 5 2.5 μM + FVIIa-Fc 10 IU/mL
[10] = FVIII-deficient plasma, compound 5 2.5 μM + FVIIa-Fc 20 IU/mL
[11] = human HemA plasma, 5 μM, anti-FVIII pab +
[12] = human HemA plasma, 5 μM, anti-FVIII pab −
[13] = human HemA plasma, 10 μM, anti-FVIII pab +
[14] = human HemA plasma, 10 μM, anti-FVIII pab −
[15] = hFIXa 10 nM, FX 10-1000 nM, PL, CaCl2, compound 1 3 μM, compounds 3, 4, 5 1 μM, compound C 10 μM

In the case of rRAPGKLTCLASYCWLFWTGIA [Compound 5], the “increase of FVIIa activity, % of control” value (FVIIa) is reported as “about 10%”, the “thrombin generation, FXIa dependence” value ([1]; compound 5 1 μM, 0, 50% or 100% FXIa (FIG. 8)) is reported as “dependent on the FXIa concentration” and the “thrombin generation, FIXa dependence” value ([1]; compound 5 1 μM, 1%, 10% or 100% (3.1 μg/mL) FIXa (FIG. 7)) is reported as “dependent on the FIXa concentration”. The “thrombin generation without FIX/FIXa” value ([1]; compound 5 1 μM, FVII, FVIIa, TF, FV, FX, FII, ATIII, TFPI, platelets) was “enhanced thrombin generation in the absence of FIX/FIXa”, the “thrombin generation, dose dependence” value ([1]; compound 5 at 1 nM, 10 nM, 100 nM, 1 μM, 2 μM (FIG. 6)) was “enhances thrombin generation in a dose-dependent manner” and the thrombin generation ([1]; compounds 1 μM, FVIII 0.1 or 1 IU/mL (FIG. 5)) was “induce thrombin generation”. For the same substance, the “catalytic activity of FXa or the prothrombinase complex” value [2] was “did not substantially increase the catalytic activity of FXa or the prothrombinase complex”, the “catalytic activity of thrombin (fibrin generation, OD405)” value (α-thrombin) was “did not substantially increase the catalytic activity of thrombin directly” and the “Clotting time” value [3, 8] was 277 s and 298 s. The “α-angle, degrees” value [3, 8] was 34 degrees and 27 degrees, the Clotting time [3, 9] was 303.5 s and the α-angle [3, 9] was 38.5 degrees. For the same substance, the Clotting time [3, 10] was 115 s, the α-angle [3, 10] was 63 degrees and the “calcium dependence of procoagulant effect (clotting time)” value ([3]; compound 5 2.5 and 5 μM, 0 to about 16 mM calcium) was “sensitive to the calcium concentration”. The “Clotting time” value [3, 11] was 197 s and 194 s, the “α-angle, degrees” value [3, 11] was 48 degrees and 53 degrees and the “Clotting time” value [3, 12] was 154 s and 164 s. For the same substance, the “α-angle, degrees” value [3, 12] was 51 degrees and 58 degrees, the “Clotting time” value [3, 13] was 108 s and 110 s and the “α-angle, degrees” value [3, 13] was 67 degrees and 69 degrees. For the same substance, the “Clotting time” value [3, 14] was 101 s and 105 s, the “α-angle, degrees” value [3, 14] was 70 degrees and 68 degrees and the “effect on ADP-activated platelets” value (platelets; 30 μM) was “only a moderate effect”. For the same substance, the “induction of platelet aggregation” value (platelets; compound 5 about 30 μM, compound 22 10 μM and 30 μM) was “did not induce platelet aggregation”, the “effect on ADP-activated platelets” value (platelets; concentration of up to 10 μM) was “did not exhibit a significant effect” and the Vmax (FIXa [4]; FXa generation assay, 10 nM hFIXa, 100 nM hFX, class symbols) was “(+++) ((+++)>2)”. The “increase of FIXa catalytic activity, % of control” value (FIXa [4]; absence of PL) was “about 80%”, the Km (FIXa [5]; [15]) was 0.011 ± 0.0023 µM and the kcat (FIXa [5]; [15]) was 0.000298 s⁻¹. For the same substance, the “Δ kcat FIXa” value (FIXa [5]; presence vs absence of compound 5) was 199, the Δ kcat (FIXa [5]; relative to buffer (1.0), compound 1 3 μM, compounds 3, 4, 5 1 μM, compound C 10 μM) was 199 and the “inactivation of FIXa by AT” value (FIXa [6]; absence of heparin) was “unaffected”. For the same substance, the “heparin-catalyzed FIXa-AT complex formation” value (FIXa [6]; heparin 100 nM, compound 5 0.1, 1, 10 μM) was “inhibited the FIXa-AT complex formation in a concentration-dependent manner”, the “% FIXa-AT complex formation” value (FIXa [6]; Compound 5 0.1 μM, 0.5 min) was 57% and the “% FIXa-AT complex formation” value (FIXa [6]; Compound 5 0.1 μM, 2 min) was 72%. The “% FIXa-AT complex formation” value (FIXa [6]; Compound 5 0.1 μM, 5 min) was 82%, the “% FIXa-AT complex formation” value (FIXa [6]; Compound 5 0.1 μM, 10 min) was 82% and the “% FIXa-AT complex formation” value (FIXa [6]; Compound 5 0.1 μM, 15 min) was 83%. For the same substance, the “% FIXa-AT complex formation” value (FIXa [6]; Compound 5 1 μM, 0.5 min) was 30%, the “% FIXa-AT complex formation” value (FIXa [6]; Compound 5 1 μM, 2 min) was 45% and the “% FIXa-AT complex formation” value (FIXa [6]; Compound 5 1 μM, 5 min) was 55%. For the same substance, the “% FIXa-AT complex formation” value (FIXa [6]; Compound 5 1 μM, 10 min) was 70%, the “% FIXa-AT complex formation” value (FIXa [6]; Compound 5 1 μM, 15 min) was 74% and the “% FIXa-AT complex formation” value (FIXa [6]; Compound 5 10 μM, 0.5 min) was 18%. The “% FIXa-AT complex formation” value (FIXa [6]; Compound 5 10 μM, 2 min) was 28%, the “% FIXa-AT complex formation” value (FIXa [6]; Compound 5 10 μM, 5 min) was 41% and the “% FIXa-AT complex formation” value (FIXa [6]; Compound 5 10 μM, 10 min) was 54%. For the same substance, the “% FIXa-AT complex formation” value (FIXa [6]; Compound 5 10 μM, 15 min) was 62%, the “% FIXa-AT complex formation” value (FIXa [7]; Compound 5 0.1 μM) was 0% and the “% FIXa-AT complex formation” value (FIXa [7]; Compound 5 1 μM) was 0%. The “% FIXa-AT complex formation” value (FIXa [7]; Compound 5 10 μM) was 0%.
